Measurements reported in US12599584B2, “Indoline derivatives, compositions comprising them and uses thereof” (Yissum Research Development Company of The Hebrew …, priority 2016, dated 2026).
Counter-ions that a name gives are not always drawn.

Assays:
[1] = test system: TNF-α in human macrophages; test: TNF-α in human macrophages after elevation by LPS (ELISA); format: cell-based
Procedure: Blood (20 ml was collected from healthy human subjects on the day of the experiment in anti-coagulant tubes and diluted in PBS 1:1. Ficol (12 mL) was added into the bottom of the tube, centrifuged slowly for 30 min at 1400 g and peripheral blood mononuclear cells (PBMCs) were separated. Monocytes were isolated by addition of 15 ml of MACS buffer. After centrifugation at 1400 g for 10 min at 4° C., the supernatant fluid was removed, monocytes were isolated by means of a MACS-Monocyte isolation kit (cat: 130-091-153) and incubated at 4-8° C. for 10 min Monocytes (500,000/well) were seeded in 12 multi well plate and cultured for 7 days in RPMI+L-Glutamin+FBS (10%) and PenStrep and h-MCSF (20 ng/mL) to convert them into macrophages. […] TNF-α, IL-1β and IL-6 protein were detected by means of the sandwich ELISA method using an ELISA kit for human cytokines (Biolegend, San Diego, CA, USA) according to the manufacturer's instructions.

[2] = test system: NO release from LPS-activated RAW cells; test: Release of NO from LPS-activated RAW 264.7 macrophages (Griess); format: cell-based, mouse; settings: for Lowest concentration that inhibited NO release by 25%: LPS-activated RAW cells; for Greater concentration needed to cause the same effect (NO release): substituent in position 5, compared with AN1284
Procedure: (§1) Anti-inflammatory activity was measured in RAW 264.7 macrophage cells. The cells were seeded at density of 5×10^4 per well in 48-well culture plates and grown overnight in DMEM as described above. The compounds were added to give final concentrations ranging from 1×10^−12-1×10^−6 M of the respective salts per well. The cells were incubated for 2 h at 37° C. prior to stimulation with lipopolysaccharide (LPS, 2.5 μg/mL) from Escherichia coli (Sigma-Aldrich). Supernatants were harvested after 8 h for detection of TNF-α and after 24 h for nitric oxide (NO). NO production was detected by a colourimetric method using Griess reagent (0.2% naphthylenediamine dihydrochloride, and 2% sulfanilamide in 5% phosphoric acid), which measures the concentration of nitrite, a stable metabolite produced from NO. TNF-α protein was detected by means of the sandwich ELISA method using an ELISA kit (Biolegend, San Diego, CA, USA) according to the manufacturer's instructions.

[3] = test system: IL-6 in human macrophages; test: IL-6 in human macrophages after elevation by LPS (ELISA); format: cell-based; settings: 24 h after LPS; 1 × 10^−9 M
Procedure: Blood (20 ml was collected from healthy human subjects on the day of the experiment in anti-coagulant tubes and diluted in PBS 1:1. Ficol (12 mL) was added into the bottom of the tube, centrifuged slowly for 30 min at 1400 g and peripheral blood mononuclear cells (PBMCs) were separated. Monocytes were isolated by addition of 15 ml of MACS buffer. After centrifugation at 1400 g for 10 min at 4° C., the supernatant fluid was removed, monocytes were isolated by means of a MACS-Monocyte isolation kit (cat: 130-091-153) and incubated at 4-8° C. for 10 min Monocytes (500,000/well) were seeded in 12 multi well plate and cultured for 7 days in RPMI+L-Glutamin+FBS (10%) and PenStrep and h-MCSF (20 ng/mL) to convert them into macrophages. Compounds (AN1284, AN1297, AN1298, 1×10^−10 or 1×10^−9 M) were added 2 h before LPS (100 μg/mL Sigma Ltd. phenol extracted from Escherichia coli 055: B5) and incubated at 37° C., 5% CO2. TNF-α, IL-1β and IL-6 protein were detected by means of the sandwich ELISA method using an ELISA kit for human cytokines (Biolegend, San Diego, CA, USA) according to the manufacturer's instructions.

[4] = test system: C57B1/6 mice with STZ-induced diabetes; test: Diabetic nephropathy induced by streptozotocin (STZ); format: in vivo, mouse
Excerpt: The renal proximal tubule is uniquely susceptible to a variety of metabolic and hemodynamic factors associated with diabetes, predominantly to hyperglycaemia. Glucose entry into renal proximal tubular cells is insulin-independent, making these cells particularly sensitive to the deleterious effects of chronic hyperglycaemia in subjects with diabetes. To induce diabetic nephropathy, male 20, 8-week-old C57B1/6 mice were given five consecutive intraperitoneal injections of streptozotocin (STZ) (50 mg/kg per day). A control group of 10 mice was given 0.1 mol/L citrate buffer (pH 4.5). Ten days following the last injection of STZ, half the mice were treated twice daily with sc injections of AN1284 2HCl (2 μmoles/kg), or vehicle (saline) for fifteen weeks.

[5] = test system: TNF-α release from LPS-activated RAW cells; test: Release of TNF-α from LPS-activated RAW 264.7 macrophages (ELISA); format: cell-based, mouse; settings: for Lowest concentration that inhibited TNF-α release by 25%: LPS-activated RAW cells; for Greater concentration needed to cause the same effect (TNF-α release): substituent in position 5, compared with AN1284
Procedure: as §1

[6] = test system: LPS-injected mice; test: Pro-inflammatory cytokine proteins in tissues of mice injected with LPS; format: in vivo, mouse; settings: sc, 2-3 doses, 15 min before LPS 10 mg/kg ip; 4 h after LPS
Procedure: Male Balb/c OlaHsd mice (aged 7-8 weeks) were injected subcutaneously (sc) with saline, or with AN1279, AN1283, AN1284, AN1287 and AN1298 at doses that contain approximately the equivalent amount of the base. LPS (10 mg/kg) was given by intraperitoneal injection 15 min later. The mice were sacrificed 4 h later, which was previously shown to be the optimal time for elevation of cytokines in the spleen and brain. The spleen, brain and liver were rapidly removed and frozen in liquid nitrogen and stored at −80° C. until use. A piece of the cortex was taken for gene analysis of cytokines. Blood was collected into heparinized tubes and plasma separated by centrifugation. For measurement of cytokine protein, tissues were weighed and diluted in PBS containing 0.8% NaCl, 0.144% NaHPO4, 0.024% KH2PO4 and protease inhibitor cocktail (Sigma) and homogenised in an Ultra-TURRAX® homogeniser at a speed of 24,000 rpm and centrifuged at 14000 g for 15 min at 4° C. Cytokines were detected by means of Elisa kits (Biolegend) and protein concentration was determined by a bicinchoninic acid protein assay kit (Thermo Scientific, IL, USA).

[7] = test system: RERT/TSC1^f/f mice; test: Tuberous sclerosis model: tamoxifen-induced TSC1 deletion; format: in vivo, mouse
Procedure: RERT/TSC1^f/f mice develop kidney pathology that resembles human tuberous sclerosis (TSC). Mice bearing a floxed allele of TSC1 were purchased from Jackson laboratories and crossed to homozygosity to the RERT strain, provided by Dr. Mariano Barbacid, Spanish National Cancer Research Centre. The RERT strain contains an IRES-Cre-ERT2 knock in into the large subunit of RNA polymerase II, allowing an inducible deletion in all cell types by administration of tamoxifen. […] The mice were injected sc with tamoxifen to induce TSC1 deletion and its effect assessed on body weight and immunological parameters associated with inflammation. AN1284 (1 μmole/kg of the 2HCl salt) was injected sc, twice daily in a group of 5 female mice 5 weeks after tamoxifen challenge. An untreated group of 5 tamoxifen challenged mice served as controls. The mice were weighed once weekly and observed for development of lethargy and eye closure.

[8] = test system: cerulein-induced mouse model; test: Acute pancreatitis, cerulein-induced mouse model; format: in vivo; settings: for Serum amylase: 1 and 2 mg/kg sc 30 min after first cerulein injection, 4 hours; for TNF-α protein in the pancreas: 1 and 2 mg/kg sc, 4 hours after first cerulein injection
Procedure: The most commonly used animal model for acute pancreatitis is the cerulein-induced mouse model (Su et al., 2006). Cerulein is a cholecystokinin analogue that produces hyperstimulation of the pancreatic acinar cells at supramaximal dosage. The acute necrotizing pancreatitis produced is histopathologically similar to acute human pancreatitis (Van Acker et at, 2007). Groups of 10 Balb/C male mice weighing 24 gm were injected intraperitoneally once every hour for 4 hours with cerulean (50 μg/kg) suspended in saline. AN1297 (1 or 2 mg/kg) or resolvin D (1 mg/kg) or saline that were injected sc. 30 min after the first cerulean injection. Mice were killed by exsanguination at 4 hours after the first cerulein injection. Blood samples or measurement of amylase were obtained by direct intracardiac puncture. Pancreases were removed immediately, flash frozen in liquid nitrogen and stored −80° C. until assayed, for TNF-α protein by means of the sandwich ELISA method using an ELISA kit (Biolegend, San Diego, CA, USA) according to the manufacturer's instructions. Serum amylase activity was determined using a colorimetric assay kit (ab102523, Abcam). The values of serum amylase activity are expressed as units per litre (U/l).

[9] = N-isopropylpropylamine versus propylamine side chain
[10] = whole kidney homogenates of diabetic mice
[11] = 1 μmole/kg 2HCl salt sc twice daily
[12] = listed as AN1927, Hydrochloride

## CC(C)NCCCN1CCc2ccccc21.Cc1ccc(S(=O)(=O)O)cc1 [AN1284, 3-(Indolin-1-yl)-N-isopropylpropan-1-amine di-p-Toluenesulfonate]
[1]; 6 h after LPS, 1 × 10^−9 M
  Reduction (%) ± STD compared to LPS alone, TNF-α: 55.3 ± 9.8%
[1]; 12 h after LPS, 1 × 10^−10 M
  Reduction (%) ± STD compared to LPS alone, TNF-α: 41.1 ± 5.4%
[1]; 12 h after LPS, 1 × 10^−11 M
  Reduction (%) ± STD compared to LPS alone, TNF-α: 7.1 ± 5.8 %
[1]; 24 h after LPS, 1 × 10^−9 M
  Reduction (%) ± STD compared to LPS alone, TNF-α: 71.4 ± 9.7%
[2]; [9]
  Decrease of the concentration that inhibited significantly the release of NO: 10 fold
[3]
  Reduction (%) ± STD compared to LPS alone, IL-6: 64.7 ± 14.8%
[4]; 2 μmoles/kg sc twice daily, fifteen weeks
  Degree of hyperglycaemia: did not affect
[4]; 0.5 mg/kg, sc
  Renal mRNA expression level of fibronectin 1: significantly normalised
[4]; AN1284 2HCl 2 μmoles/kg sc twice daily for fifteen weeks, diabetic mice
  Total fat mass: further reduction
[4]; chronic treatment
  Blood urea nitrogen levels: normalizing
  Glomerular cross-sectional area: normalizing
  Urine albumin-to-creatinine ratio: normalizing
[4]; versus diabetic-vehicle-treated animals
  Increased glomerular space area and mesangial expansion: completely normalised
[4]; versus diabetic-vehicle-treated group
  Kidney-to-body weight ratio: significantly reduced
[4]; [10]
  mRNA expression level of IP-10: significantly reduced
  mRNA expression level of TIMP1: significantly reduced
  mRNA expression level of collagen-1: significantly reduced
  mRNA expression level of collagen-3: significantly reduced
  mRNA expression level of kidney injury marker lipocalin 2: significantly reduced
[5]; [9]
  Decrease of the concentration that inhibited significantly the release of TNF-α: 10 fold
[6]
  IL-6 protein in the brain: reduction
  IL-6 protein in the liver: reduction
[7]; [11]
  MDSCs in the bone marrow and spleen (flow cytometry): significant reduction
  T cells in the bone marrow and spleen (flow cytometry): significant reduction
[7]; 1 μmole/kg 2HCl salt sc twice daily, versus untreated tamoxifen-challenged mice
  Body weight decrease: much smaller decrease
[7]; 1 μmole/kg of the 2HCl salt sc twice daily, from 5 weeks after tamoxifen, five weeks of treatment
  Development of severe lethargy: none of the AN1284-treated mice developed severe lethargy
[7]; kidney histology
  Renal cysts: clear reduction
[7]; versus untreated group
  Cytokine levels of TNF-α and IL-6 in spleen and liver: significant reduction

## Cc1ccc(S(=O)(=O)O)cc1.NCCCC1CNc2ccccc21 (centres unmarked) [AN1282, 3-(Indolin-3-yl)propan-1-amine di-p-Toluenesulfonate]
[2]
  Lowest concentration that inhibited NO release by 25%: 100 pM
[5]
  Lowest concentration that inhibited TNF-α release by 25%: 100 pM

## COC(=O)CCN1CCc2cc(Cl)ccc21.Cc1ccc(S(=O)(=O)O)cc1 [AN1285, Methyl 3-(5-Chloroindolin-1-yl)propanoate p-Toluenesulfonate]
[2]
  Greater concentration needed to cause the same effect (NO release): 100 fold
[5]
  Greater concentration needed to cause the same effect (TNF-α release): 100 fold

## COc1ccc2c(c1)CCN2CCCNC(C)C [AN1298, N-Isopropyl-3-(5-methoxyindolin-1-yl)propan-1-amine di-Hydrochloride]
[1]; 6 h after LPS, 1 × 10^−9 M
  Reduction (%) ± STD compared to LPS alone, TNF-α: 50.4 ± 13.5%
[1]; 12 h after LPS, 1 × 10^−10 M
  Reduction (%) ± STD compared to LPS alone, TNF-α: 28.0 ± 7.9%
[1]; 12 h after LPS, 1 × 10^−11 M
  Reduction (%) ± STD compared to LPS alone, TNF-α: 14.6 ± 4.2%
[1]; 24 h after LPS, 1 × 10^−9 M
  Reduction (%) ± STD compared to LPS alone, TNF-α: 72.2 ± 9.7%
[2]
  Greater concentration needed to cause the same effect (NO release): does not affect the activity
[3]
  Reduction (%) ± STD compared to LPS alone, IL-6: 54.6 ± 18.8%
[5]
  Greater concentration needed to cause the same effect (TNF-α release): does not affect the activity
[6]
  IL-6 protein in the brain: reduction
  IL-6 protein in the liver: reduction

## COC(=O)CCN1CCc2ccccc21.Cl [AN1283, Methyl 3-(Indolin-1-yl)propanoate Hydrochloride]
[6]
  IL-6 protein in the brain: reduction
  IL-6 protein in the liver: reduction

## COC(=O)CCN1CCc2cc(OC)ccc21.Cl [AN1297, Methyl 3-(5-Methoxyindolin-1-yl)propanoate Hydrochloride]
[1]; 6 h after LPS, 1 × 10^−9 M
  Reduction (%) ± STD compared to LPS alone, TNF-α: 55.7 ± 11.5%
[1]; 12 h after LPS, 1 × 10^−10 M
  Reduction (%) ± STD compared to LPS alone, TNF-α: 25.1 ± 10.9%
[1]; 12 h after LPS, 1 × 10^−11 M
  Reduction (%) ± STD compared to LPS alone, TNF-α: 22.0 ± 7.2%
[1]; 24 h after LPS, 1 × 10^−9 M
  Reduction (%) ± STD compared to LPS alone, TNF-α: 71.1 ± 8.9%
[8]; Hydrochloride
  Serum amylase: decreased significantly
  TNF-α protein in the pancreas: dose-dependently reduced
[8]; [12]
  Serum amylase: Dose related reduction
  TNF-α protein in the pancreas: Dose related reduction
[3]
  Reduction (%) ± STD compared to LPS alone, IL-6: 62.4 ± 16.5%
[6]
  IL-6 protein in the brain: reduction
  IL-6 protein in the liver: reduction

## COC(=O)CCC1CNc2ccccc21.Cl (centres unmarked) [AN647]
[2]
  Lowest concentration that inhibited NO release by 25%: 100 pM
[5]
  Lowest concentration that inhibited TNF-α release by 25%: 100 pM
